Values after ≈ are worked out from the molar mass of the structure shown. Numbered stars: 1 amine (or outer) side, 2 acyl side, 3 side chain; on linkers, the order of the positions; unused ones are H or OH. Square brackets hold non-standard residues; d marks the D form. Peptide text beside a SMILES is read from it. ξ: configuration not given here. X1 = N=C1NCC(C(O)C(N[*:1])C(=O)[*:2])N1C1OC(CO)C(O)C(O)C1O; ξEnduracididine(βξ-OH,4'ξ) = N=C1NCC(C(O)C(N)C(=O)O)N1
What was measured:
Assay in all cases: in vitro antibacterial evaluation, MIC by broth dilution
Assay type in all cases: cell-based
[1] = system: Enterococcus sp.; details: broth dilution, 18 hours at 35° C.
Outline: (§1)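 MIC, the lowest antibiotic concentration preventing growth, was read across 64-0.06 μg/mL with 5×10^5 CFU/mL inoculum. Method followed NCCLS M7-A2 broth dilution using Mueller-Hinton II; Gram-positive strains covered recent methicillin-, penicillin- and/or vancomycin-resistant clinical isolates.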

[2] = system: Escherichia coli; details: 18 hours at 35° C.
Outline: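 Broth dilution per NCCLS standard M7-A2 in Muller-Hinton II […], with an inoculum of 5×10^5 CFU/mL and antibiotic spanning 64-0.06 μg/mL. The MIC is the lowest concentration that inhibits growth of the organism.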

[3] = system: Staphylococcus sp.; details: broth dilution, 18 hours at 35° C.
Outline: as §1

[4] = system: Streptococcus sp.; details: broth dilution, 18 hours at 35° C.
Outline: as §1

Q: With `N=C1NCC(C(O)C2NC(=O)C(Cc3ccc(O)cc3)NC(=O)C(Cc3ccccc3)NC(=O)CNC(=O)C(CO)NC(=O)C(C(O)C3CNC(=N)N3C3OC(CO)C(O)C(O)C3O)NC2=O)N1` (stereo not drawn) [Example 279a, Cyclo[glycylphenylalanyltyrosyl-3-(2-iminoimidazolidin-4-yl)seryl-3-(3-hexopyranosyl-2-iminoimidazolidin-4-yl)serylseryl]] (cyclo(GFY[ξEnduracididine(βξ-OH,4'ξ)][X1]S); configuration not given here) as the compound, how does the “MIC Enterococcus avium (GC 4558)” value ([1]; Enterococcus avium (GC 4558)) read?
A: >64 µg/mL

Q: What about the “MIC Enterococcus faecalis (ATCC 29212)” value ([1]; Enterococcus faecalis (ATCC 29212)) of the same compound?
A: >64 µg/mL

Q: What about the “MIC Enterococcus faecalis (GC 4553)” value ([1]; Enterococcus faecalis (GC 4553)) of the same compound?
A: >64 µg/mL

Q: What about the “MIC Enterococcus faecalis (GC 4554)” value ([1]; Enterococcus faecalis (GC 4554)) of the same compound?
A: >64 µg/mL

Q: And the “MIC Enterococcus faecalis (GC 6189)” value ([1]; Enterococcus faecalis (GC 6189))?
A: >64 µg/mL

Q: And the “MIC Enterococcus faecium (GC 2243)” value ([1]; Enterococcus faecium (GC 2243))?
A: >64 µg/mL

Q: What about the “MIC Enterococcus faecium (GC 4556)” value ([1]; Enterococcus faecium (GC 4556)) of the same compound?
A: >64 µg/mL

Q: What about the “MIC Enterococcus faecium (GC 4557)” value ([1]; Enterococcus faecium (GC 4557)) of the same compound?
A: 64 µg/mL (≈ 66.9 µM)

Q: And the “MIC Enterococcus faecalis (ATCC 29212)” value ([1]; strain ATCC 29212)?
A: >64 µg/mL

Q: And the “MIC Enterococcus faecalis (GC 2242)” value ([1]; strain GC 2242)?
A: >64 µg/mL

Q: And the “MIC Enterococcus faecium (GC 2243)” value ([1]; strain GC 2243)?
A: >64 µg/mL

Q: And the “MIC Enterococcus faecalis (GC 2691)” value ([1]; strain GC 2691)?
A: >64 µg/mL

Q: What about the “MIC Enterococcus faecalis (GC 3059)” value ([1]; strain GC 3059) of the same compound?
A: >64 µg/mL

Q: And the “MIC Enterococcus faecalis (GC 4552)” value ([1]; strain GC 4552)?
A: >64 µg/mL

Q: What about the “MIC Enterococcus faecalis (GC 4553)” value ([1]; strain GC 4553) of the same compound?
A: >64 µg/mL

Q: What about the “MIC Enterococcus faecalis (GC 4554)” value ([1]; strain GC 4554) of the same compound?
A: >64 µg/mL

Q: And the “MIC Enterococcus faecium (GC 4556)” value ([1]; strain GC 4556)?
A: >64 µg/mL

Q: What about the “MIC Enterococcus faecium (GC 4557)” value ([1]; strain GC 4557) of the same compound?
A: 64 µg/mL (≈ 66.9 µM)

Q: What about the “MIC Enterococcus avium (GC 4558)” value ([1]; strain GC 4558) of the same compound?
A: >64 µg/mL

Q: What about the “MIC Enterococcus faecalis (GC 6189)” value ([1]; strain GC 6189) of the same compound?
A: >64 µg/mL

Q: What about the “MIC Escherichia coli (ATCC 25922)” value ([2]; Escherichia coli (ATCC 25922)) of the same compound?
A: 64 µg/mL (≈ 66.9 µM)

Q: And the “MIC Escherichia coli (GC 4559)” value ([2]; Escherichia coli (GC 4559))?
A: 64 µg/mL (≈ 66.9 µM)

Q: What about the “MIC Escherichia coli (GC 4560)” value ([2]; Escherichia coli (GC 4560)) of the same compound?
A: 32 µg/mL (≈ 33.4 µM)

Q: What about the “MIC Coagulase Negative Staphylococcus (GC 4547)” value [3] of the same compound?
A: 64 µg/mL (≈ 66.9 µM)

Q: What about the “MIC Coagulase Negative Staphylococcus (GC 4548)” value [3] of the same compound?
A: >64 µg/mL

Q: What about the “MIC Coagulase Negative Staphylococcus (GC 4549)” value [3] of the same compound?
A: 64 µg/mL (≈ 66.9 µM)

Q: And the “MIC Coagulase Negative Staphylococcus (GC 4551)” value [3]?
A: >64 µg/mL

Q: What about the “MIC Coagulase Negative Staphylococcus (GC 6257)” value [3] of the same compound?
A: 64 µg/mL (≈ 66.9 µM)

Q: What about the “MIC Staphylococcus aureus (ATCC 29213)” value [3] of the same compound?
A: >64 µg/mL

Q: And the “MIC Staphylococcus aureus (GC 1131)” value [3]?
A: >64 µg/mL

Q: And the “MIC Staphylococcus aureus (GC 3051)” value [3]?
A: >64 µg/mL

Q: And the “MIC Staphylococcus aureus (GC 3053)” value [3]?
A: >64 µg/mL

Q: And the “MIC Staphylococcus aureus (GC 4541)” value [3]?
A: >64 µg/mL

Q: What about the “MIC Staphylococcus aureus (GC 4542)” value [3] of the same compound?
A: >64 µg/mL

Q: And the “MIC Staphylococcus aureus (GC 4544)” value [3]?
A: >64 µg/mL

Q: What about the “MIC Staphylococcus aureus (GC 4545)” value [3] of the same compound?
A: >64 µg/mL

Q: What about the “MIC Staphylococcus aureus-SMITH (GC 4543)” value [3] of the same compound?
A: >64 µg/mL

Q: What about the “MIC Staphylococcus haemolyticus (GC 4546)” value [3] of the same compound?
A: 64 µg/mL (≈ 66.9 µM)

Q: What about the “MIC Staphylococcus aureus (ATCC 29213)” value ([3]; strain ATCC 29213) of the same compound?
A: >64 µg/mL

Q: What about the “MIC Staphylococcus aureus (GC 1131)” value ([3]; strain GC 1131) of the same compound?
A: >64 µg/mL

Q: And the “MIC Staphylococcus aureus (GC 3051)” value ([3]; strain GC 3051)?
A: >64 µg/mL

Q: What about the “MIC Staphylococcus aureus (GC 3053)” value ([3]; strain GC 3053) of the same compound?
A: >64 µg/mL

Q: And the “MIC Staphylococcus aureus (GC 4541)” value ([3]; strain GC 4541)?
A: >64 µg/mL

Q: What about the “MIC Staphylococcus aureus (GC 4542)” value ([3]; strain GC 4542) of the same compound?
A: >64 µg/mL

Q: And the “MIC Staphylococcus aureus (GC 4544)” value ([3]; strain GC 4544)?
A: >64 µg/mL

Q: And the “MIC Staphylococcus aureus (GC 4545)” value ([3]; strain GC 4545)?
A: >64 µg/mL

Q: What about the “MIC Staphylococcus haemolyticus (GC 4546)” value ([3]; strain GC 4546) of the same compound?
A: 64 µg/mL (≈ 66.9 µM)

Q: What about the “MIC Coagulase Negative Staphylococcus (GC 4547)” value ([3]; strain GC 4547) of the same compound?
A: 64 µg/mL (≈ 66.9 µM)

Q: What about the “MIC Coagulase Negative Staphylococcus (GC 4548)” value ([3]; strain GC 4548) of the same compound?
A: >64 µg/mL

Q: And the “MIC Coagulase Negative Staphylococcus (GC 4549)” value ([3]; strain GC 4549)?
A: 64 µg/mL (≈ 66.9 µM)

Q: And the “MIC Coagulase Negative Staphylococcus (GC 4551)” value ([3]; strain GC 4551)?
A: >64 µg/mL

Q: And the “MIC Coagulase Negative Staphylococcus (GC 6257)” value ([3]; strain GC 6257)?
A: 64 µg/mL (≈ 66.9 µM)

Q: And the “MIC Staphylococcus aureus-SMITH (GC 4543)” value ([3]; strain SMITH GC 4543)?
A: >64 µg/mL

Q: What about the “MIC Streptococcus pneumoniae (ATCC 6301)” value ([4]; strain ATCC 6301) of the same compound?
A: 64 µg/mL (≈ 66.9 µM)

Q: And the “MIC Streptococcus pneumoniae (GC 1894)” value ([4]; strain GC 1894)?
A: 64 µg/mL (≈ 66.9 µM)

Q: And the “MIC Streptococcus pyogenes (GC 4563)” value ([4]; strain GC 4563)?
A: 64 µg/mL (≈ 66.9 µM)

Q: And the “MIC Streptococcus agalactiae (GC 4564)” value ([4]; strain GC 4564)?
A: >64 µg/mL

Q: What about the “MIC Streptococcus pneumoniae (GC 4565)” value ([4]; strain GC 4565) of the same compound?
A: >64 µg/mL
